Nine compounds from patent US20190330275A1 (priority 2016, published 2019) can be followed below.

Values joined by “and” are separate entries in the source; they are usually repeats but may differ in a detail not shown here. Equal entries are not always repeated. Peptide text beside a SMILES is read from it. Bounds are passed on as bounds.

One assay addresses rat α3β4 nAChR (Rattus norvegicus, UniProt P04757+P12392). In words: cell-based. The note with it: for IC50: α3β4 IC50 (half-blocking dose).
The next assay has as its target rat α6/α3β4 nAChR (Rattus norvegicus, UniProt P04757+P12392+P43143). In words: cell-based. The conditions noted are these: for IC50: α6/α3β4 IC50 (half-blocking dose).

rat α3β4 nAChR, sequence (P04757 26-499 limits assumed): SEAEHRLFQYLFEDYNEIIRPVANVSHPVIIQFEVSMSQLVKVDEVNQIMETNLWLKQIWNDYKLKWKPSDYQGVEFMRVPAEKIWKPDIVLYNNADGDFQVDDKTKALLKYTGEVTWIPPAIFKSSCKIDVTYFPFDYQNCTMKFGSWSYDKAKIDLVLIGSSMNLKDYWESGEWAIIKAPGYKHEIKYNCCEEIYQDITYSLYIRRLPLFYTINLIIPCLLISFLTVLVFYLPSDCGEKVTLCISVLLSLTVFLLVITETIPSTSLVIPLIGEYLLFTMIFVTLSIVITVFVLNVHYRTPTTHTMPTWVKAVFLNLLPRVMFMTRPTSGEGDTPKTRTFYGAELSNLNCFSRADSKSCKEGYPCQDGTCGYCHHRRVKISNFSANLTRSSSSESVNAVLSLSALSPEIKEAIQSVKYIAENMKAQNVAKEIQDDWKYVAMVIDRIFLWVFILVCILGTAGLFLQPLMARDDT
rat α3β4 nAChR, sequence (P12392 21-495 limits assumed): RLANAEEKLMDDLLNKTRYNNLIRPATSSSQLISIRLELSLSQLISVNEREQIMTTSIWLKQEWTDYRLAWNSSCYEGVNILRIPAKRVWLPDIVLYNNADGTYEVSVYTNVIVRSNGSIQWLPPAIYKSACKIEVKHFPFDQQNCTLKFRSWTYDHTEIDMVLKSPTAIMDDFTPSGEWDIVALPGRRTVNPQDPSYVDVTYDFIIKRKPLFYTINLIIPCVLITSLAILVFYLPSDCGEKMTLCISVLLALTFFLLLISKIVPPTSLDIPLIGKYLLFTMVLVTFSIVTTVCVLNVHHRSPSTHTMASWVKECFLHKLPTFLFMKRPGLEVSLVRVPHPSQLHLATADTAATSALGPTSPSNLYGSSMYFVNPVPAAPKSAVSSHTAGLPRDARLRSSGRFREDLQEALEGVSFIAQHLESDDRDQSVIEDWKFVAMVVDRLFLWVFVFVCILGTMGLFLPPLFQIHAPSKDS
rat α6/α3β4 nAChR, sequence (P04757 whole entry, looked up): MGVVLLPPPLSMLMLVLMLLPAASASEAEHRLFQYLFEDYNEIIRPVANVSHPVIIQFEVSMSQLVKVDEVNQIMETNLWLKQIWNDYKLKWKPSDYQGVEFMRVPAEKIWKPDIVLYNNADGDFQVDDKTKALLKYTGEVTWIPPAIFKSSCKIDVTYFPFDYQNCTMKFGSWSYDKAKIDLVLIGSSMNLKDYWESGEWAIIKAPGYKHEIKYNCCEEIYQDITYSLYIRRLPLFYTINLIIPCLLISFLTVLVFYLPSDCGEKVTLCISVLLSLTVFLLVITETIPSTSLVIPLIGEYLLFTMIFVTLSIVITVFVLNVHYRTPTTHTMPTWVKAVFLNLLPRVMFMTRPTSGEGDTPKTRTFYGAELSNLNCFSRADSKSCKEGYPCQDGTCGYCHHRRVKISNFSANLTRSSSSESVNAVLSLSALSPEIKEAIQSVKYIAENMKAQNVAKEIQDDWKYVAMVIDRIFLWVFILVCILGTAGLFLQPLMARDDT
rat α6/α3β4 nAChR, sequence (P12392 whole entry, looked up): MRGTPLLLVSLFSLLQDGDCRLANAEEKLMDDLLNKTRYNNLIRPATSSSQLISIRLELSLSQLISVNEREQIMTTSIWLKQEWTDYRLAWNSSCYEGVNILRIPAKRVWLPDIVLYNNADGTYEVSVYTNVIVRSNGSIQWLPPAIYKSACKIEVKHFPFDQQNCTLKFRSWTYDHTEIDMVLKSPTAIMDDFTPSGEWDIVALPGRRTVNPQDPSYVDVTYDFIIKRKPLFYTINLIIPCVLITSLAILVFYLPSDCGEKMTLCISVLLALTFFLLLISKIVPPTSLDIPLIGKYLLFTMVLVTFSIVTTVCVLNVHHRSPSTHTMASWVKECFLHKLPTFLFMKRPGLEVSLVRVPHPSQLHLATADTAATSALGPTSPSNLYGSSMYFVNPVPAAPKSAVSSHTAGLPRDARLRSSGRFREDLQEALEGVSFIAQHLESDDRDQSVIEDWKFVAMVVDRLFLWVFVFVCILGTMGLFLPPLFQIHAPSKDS
rat α6/α3β4 nAChR, sequence (P43143 whole entry, looked up): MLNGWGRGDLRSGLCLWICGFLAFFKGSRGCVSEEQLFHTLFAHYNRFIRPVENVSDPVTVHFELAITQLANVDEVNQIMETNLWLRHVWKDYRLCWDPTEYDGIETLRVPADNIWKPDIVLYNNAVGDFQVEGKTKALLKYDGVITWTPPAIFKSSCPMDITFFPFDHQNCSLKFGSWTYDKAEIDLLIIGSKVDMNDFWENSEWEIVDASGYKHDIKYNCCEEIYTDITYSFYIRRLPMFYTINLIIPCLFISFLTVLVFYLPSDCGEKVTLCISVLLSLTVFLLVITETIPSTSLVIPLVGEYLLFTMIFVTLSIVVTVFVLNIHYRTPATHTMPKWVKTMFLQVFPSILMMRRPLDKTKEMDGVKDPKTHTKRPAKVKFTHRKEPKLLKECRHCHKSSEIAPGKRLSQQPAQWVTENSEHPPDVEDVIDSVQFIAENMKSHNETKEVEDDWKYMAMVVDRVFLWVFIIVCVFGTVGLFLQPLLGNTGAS

With `CC[C@H](C)[C@@H]1NC(=O)[C@@H]2CCCN2C(=O)[C@H](CO)NC(=O)[C@H](CCSC)NC(=O)[C@H](C)NC(=O)[C@H](CO)NC(=O)[C@@H]2CSSC[C@H](NC(=O)CN)C(=O)N[C@@H](CSSC[C@@H](C(N)=O)NC1=O)C(=O)N[C@@H](C)C(=O)N[C@@H](Cc1c[nH]cn1)C(=O)N1CCC[C@H]1C(=O)N[C@@H](C(C)C)C(=O)N2` [TxID[S4A]] (HELM PEPTIDE1{G.C.C.A.H.P.V.C.S.A.M.S.P.I.C.[am]}$PEPTIDE1,PEPTIDE1,2:R3-8:R3|PEPTIDE1,PEPTIDE1,3:R3-15:R3$$$V2.0), the “α3β4 IC50 ratio” value on rat α3β4 nAChR was 3.0. At rat α6/α3β4 nAChR, the “IC50 ratio of α6/α3β4 vs. α3β4 (Discrimination)” value (from here on “IC50 ratio of α6/α3β4 vs. α3β4”) came out at 5.9 and the “α6/α3β4 IC50 ratio” value is recorded as 1.9.

As to `CC[C@H](C)[C@@H]1NC(=O)[C@@H]2CCCN2C(=O)[C@H](C)NC(=O)[C@H](CCSC)NC(=O)[C@H](C)NC(=O)[C@H](CO)NC(=O)[C@@H]2CSSC[C@H](NC(=O)CN)C(=O)N[C@@H](CSSC[C@@H](C(N)=O)NC1=O)C(=O)N[C@@H](CO)C(=O)N[C@@H](Cc1c[nH]cn1)C(=O)N1CCC[C@H]1C(=O)N[C@@H](C(C)C)C(=O)N2` [TxID[S12A]] (HELM PEPTIDE1{G.C.C.S.H.P.V.C.S.A.M.A.P.I.C.[am]}$PEPTIDE1,PEPTIDE1,2:R3-8:R3|PEPTIDE1,PEPTIDE1,3:R3-15:R3$$$V2.0), on rat α3β4 nAChR, the “α3β4 IC50 ratio” value is 4.8. For the same compound, at rat α6/α3β4 nAChR, the “IC50 ratio of α6/α3β4 vs. α3β4” value was found to be 2.3 and the “α6/α3β4 IC50 ratio” value is 1.2.

In the case of `CC[C@H](C)[C@@H]1NC(=O)[C@@H]2CCCN2C(=O)[C@H](CO)NC(=O)[C@H](CCSC)NC(=O)[C@H](C)NC(=O)[C@H](CO)NC(=O)[C@@H]2CSSC[C@H](NC(=O)CN)C(=O)N[C@@H](CSSC[C@@H](C(N)=O)NC1=O)C(=O)N[C@@H](CO)C(=O)N[C@@H](Cc1c[nH]cn1)C(=O)N1CCC[C@H]1C(=O)N[C@@H](C(C)C)C(=O)N2` [TxID, reference compound], on rat α3β4 nAChR, the “blocking of rat α3β4 nAChRs current” value is given as “strong blocking activities”; the current blocked was 97% and 67%; the “elution time for current to return to the level of control current” value is recorded as ≤ 2 min. On rat α6/α3β4 nAChR, the current blocked was 85% and 46%; the “discrimination degree between α3β4 and α6β4* nAChRs” value amounted to 9.3 times.

Turning to `CSCC[C@@H]1NC(=O)[C@H](C)NC(=O)[C@H](CO)NC(=O)[C@@H]2CSSC[C@H](NC(=O)CN)C(=O)N[C@@H](CSSC[C@@H](C(N)=O)NC(=O)[C@H](CC(=O)O)NC(=O)[C@@H]3CCCN3C(=O)[C@H](CO)NC1=O)C(=O)N[C@@H](CO)C(=O)N[C@@H](Cc1c[nH]cn1)C(=O)N1CCC[C@H]1C(=O)N[C@@H](C(C)C)C(=O)N2` [TxID[I14D]] (HELM PEPTIDE1{G.C.C.S.H.P.V.C.S.A.M.S.P.D.C.[am]}$PEPTIDE1,PEPTIDE1,2:R3-8:R3|PEPTIDE1,PEPTIDE1,3:R3-15:R3$$$V2.0), on rat α3β4 nAChR, the “α3β4 IC50 ratio” value amounted to 2.7 and the IC50 (as a rule, the concentration at which inhibition is half-maximal) was 9.8 nM. In addition, at rat α6/α3β4 nAChR, the “IC50 ratio of α6/α3β4 vs. α3β4” value is 4.2, the “α6/α3β4 IC50 ratio” value amounted to 1.2 and the IC50 was found to be 40.8 nM.

Regarding `CC[C@@H]1NC(=O)[C@@H]2CSSC[C@H](NC(=O)CN)C(=O)N[C@@H](CSSC[C@@H](C(N)=O)NC(=O)[C@H]([C@@H](C)CC)NC(=O)[C@@H]3CCCN3C(=O)[C@H](CO)NC(=O)[C@H](CCSC)NC(=O)[C@H](C)NC1=O)C(=O)N[C@@H](CO)C(=O)N[C@@H](Cc1c[nH]cn1)C(=O)N1CCC[C@H]1C(=O)N[C@@H](C(C)C)C(=O)N2` [TxID[S9Abu], GCCSHPVCBAMSPIC*] (HELM PEPTIDE1{G.C.C.S.H.P.V.C.[Abu].A.M.S.P.I.C.[am]}$PEPTIDE1,PEPTIDE1,2:R3-8:R3|PEPTIDE1,PEPTIDE1,3:R3-15:R3$$$V2.0), at rat α3β4 nAChR, the “binding (blocking) activity to α3β4 nAChR compared with wild type TxID” value is recorded as “not significantly different from the activity of the wild type TxID” and the “elution after blocking the α3β4 nAChR current” value is reported as “very slow”. The “binding (blocking) activity to α6/α3β4 nAChR compared with wild type TxID” value on rat α6/α3β4 nAChR is listed as “not significantly different from the activity of the wild type TxID”.

In the case of `CC[C@H](C)[C@@H]1NC(=O)[C@@H]2CCCN2C(=O)[C@H](CO)NC(=O)[C@H](CCSC)NC(=O)[C@H](C)NC(=O)[C@H](CO)NC(=O)[C@H](CCCNC(=N)N)NC(=O)[C@@H]2CSSC[C@H](NC(=O)CN)C(=O)N[C@@H](CSSC[C@@H](C(N)=O)NC1=O)C(=O)N[C@@H](CO)C(=O)N[C@@H](Cc1c[nH]cn1)C(=O)N1CCC[C@H]1C(=O)N[C@@H](C(C)C)C(=O)N2` [TxID[9R]] (HELM PEPTIDE1{G.C.C.S.H.P.V.C.R.S.A.M.S.P.I.C.[am]}$PEPTIDE1,PEPTIDE1,2:R3-8:R3|PEPTIDE1,PEPTIDE1,3:R3-16:R3$$$V2.0), the IC50 against rat α3β4 nAChR and at rat α6/α3β4 nAChR was > 10000 nM each time.

`CC[C@H](C)[C@@H]1NC(=O)[C@@H]2CCCN2C(=O)[C@H](CO)NC(=O)[C@H](CC(C)C)NC(=O)[C@H](C)NC(=O)[C@H](C)NC(=O)[C@@H]2CSSC[C@H](NC(=O)CN)C(=O)N[C@@H](CSSC[C@@H](C(N)=O)NC1=O)C(=O)N[C@@H](CO)C(=O)N[C@@H](Cc1c[nH]cn1)C(=O)N1CCC[C@H]1C(=O)N[C@@H](C(C)C)C(=O)N2` [TxID[S9A, M11I]] (HELM PEPTIDE1{G.C.C.S.H.P.V.C.A.A.L.S.P.I.C.[am]}$PEPTIDE1,PEPTIDE1,2:R3-8:R3|PEPTIDE1,PEPTIDE1,3:R3-15:R3$$$V2.0): at rat α3β4 nAChR, the “α3β4 IC50 ratio” value is on record as 8.4. Further, at rat α6/α3β4 nAChR, the “IC50 ratio of α6/α3β4 vs. α3β4” value came out at 0.3 and the “α6/α3β4 IC50 ratio” value was found to be 3.0.

For `CC[C@H](C)[C@@H]1NC(=O)[C@@H]2CCCN2C(=O)[C@H](CO)NC(=O)[C@H](CCSC)NC(=O)[C@H](C)NC(=O)[C@H](Cc2ccccc2)NC(=O)[C@@H]2CSSC[C@H](NC(=O)CN)C(=O)N[C@@H](CSSC[C@@H](C(N)=O)NC1=O)C(=O)N[C@@H](CO)C(=O)N[C@@H](Cc1c[nH]cn1)C(=O)N1CCC[C@H]1C(=O)N[C@@H](C(C)C)C(=O)N2` [TxID[S9F]] (HELM PEPTIDE1{G.C.C.S.H.P.V.C.F.A.M.S.P.I.C.[am]}$PEPTIDE1,PEPTIDE1,2:R3-8:R3|PEPTIDE1,PEPTIDE1,3:R3-15:R3$$$V2.0), at rat α3β4 nAChR, the “binding (blocking) activity to α3β4 nAChR compared with wild type TxID” value is “not significantly different from the activity of the wild type TxID”, the “elution after blocking the α3β4 nAChR current” value is on record as “very slow” and the “α3β4 IC50 ratio” value came out at 3.8. On rat α6/α3β4 nAChR, the “IC50 ratio of α6/α3β4 vs. α3β4” value was determined as 0.5, the “binding (blocking) activity to α6/α3β4 nAChR compared with wild type TxID” value was “not significantly different from the activity of the wild type TxID”, the “elution rate after blocking α6/α3β4 nAChR current” value was “significantly slower than those of other polypeptides” and the “α6/α3β4 IC50 ratio” value amounted to 0.2.

For `CC[C@H](C)[C@@H]1NC(=O)[C@H](Cc2c[nH]cn2)NC(=O)[C@@H]2CCCN2C(=O)[C@H](CO)NC(=O)[C@H](CCSC)NC(=O)[C@H](C)NC(=O)[C@H](CO)NC(=O)[C@@H]2CSSC[C@H](NC(=O)CN)C(=O)N[C@@H](CSSC[C@@H](C(N)=O)NC1=O)C(=O)N[C@@H](CO)C(=O)N[C@@H](Cc1c[nH]cn1)C(=O)N1CCC[C@H]1C(=O)N[C@@H](C(C)C)C(=O)N2` [TxID[14H]] (HELM PEPTIDE1{G.C.C.S.H.P.V.C.S.A.M.S.P.H.I.C.[am]}$PEPTIDE1,PEPTIDE1,2:R3-8:R3|PEPTIDE1,PEPTIDE1,3:R3-16:R3$$$V2.0), at rat α3β4 nAChR, the “α3β4 IC50 ratio” value is listed as 9.2 and half-maximal inhibition (IC50) was put at 33 nM. Moreover, at rat α6/α3β4 nAChR, the “IC50 ratio of α6/α3β4 vs. α3β4” value is recorded as 9.5, the “α6/α3β4 IC50 ratio” value was found to be 9.2 and it took 312 nM to reach half-maximal inhibition (IC50).
